From patent US9067894B1, “Compound, composition, and method of activating GIRK potassium channel and use of same for treating conditions of interest” (Vanderbilt University, priority 2013, dated 2015)

Tests used:
GIRK2/3 = molecular target: T1, GIRK2/3 (Homo sapiens, UniProt P48051+Q92806); assay: Whole-cell voltage-clamp, GIRK2/3-expressing HEK-293 cells; format: cell-based; details: cell line GIRK2-3
T1 construct: expressed in transfected cells; host or cells: HEK-293
T1 sequence (P48051 1-423): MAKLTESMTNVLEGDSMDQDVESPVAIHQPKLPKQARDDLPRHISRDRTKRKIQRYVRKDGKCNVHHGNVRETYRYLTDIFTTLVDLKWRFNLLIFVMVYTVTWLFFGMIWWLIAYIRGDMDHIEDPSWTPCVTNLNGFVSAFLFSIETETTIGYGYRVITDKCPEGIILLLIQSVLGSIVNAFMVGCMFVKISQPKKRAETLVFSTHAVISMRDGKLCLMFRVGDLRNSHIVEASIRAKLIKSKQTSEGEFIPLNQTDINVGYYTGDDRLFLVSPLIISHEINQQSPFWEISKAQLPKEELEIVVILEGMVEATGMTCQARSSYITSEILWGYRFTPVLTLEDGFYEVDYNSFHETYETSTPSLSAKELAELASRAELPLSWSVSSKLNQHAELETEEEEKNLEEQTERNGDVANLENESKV
T1 sequence (Q92806 1-393): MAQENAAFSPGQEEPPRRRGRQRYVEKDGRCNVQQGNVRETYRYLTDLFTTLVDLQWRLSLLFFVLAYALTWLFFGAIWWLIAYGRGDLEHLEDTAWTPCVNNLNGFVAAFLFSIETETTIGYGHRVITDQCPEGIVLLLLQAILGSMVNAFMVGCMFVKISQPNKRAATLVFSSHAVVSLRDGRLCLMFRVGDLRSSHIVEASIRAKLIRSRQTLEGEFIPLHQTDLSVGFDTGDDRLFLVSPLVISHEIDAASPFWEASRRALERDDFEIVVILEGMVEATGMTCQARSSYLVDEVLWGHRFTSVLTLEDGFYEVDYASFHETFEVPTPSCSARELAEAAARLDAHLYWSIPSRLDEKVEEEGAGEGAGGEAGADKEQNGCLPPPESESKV
Description: Cell Line Construction and Cell Culture. HEK-293 cells co-expressing human GIRK1/2 and rat mGlu8 were generated as previously described (Niswender et al., 2008). A HEK-293 cell line (ATCC, Manassas, Va.) expressing human GIRK1 and human GIRK2 was constructed by transfecting HEK-293 cells with GIRK1 and GIRK2 (Origene, Rockville, Md.) cloned into the pBudCE4.1 vector (Life Technologies, Carlsbad, Calif.) using FuGene 6 (Promega, Madison, Wis.) transfection reagent. […]
A single-cell suspension of HEK-293 cells stably transfected with the appropriate ion channels were plated into TC-treated 35 mm polystyrene dishes at ˜15% confluence and incubated overnight in a 5% CO2 cell culture incubator at 37° C. […] Whole cell currents were recorded in 20K extracellular solution at −70 mV using a Pico 1 amplifier (Tecella, Foothill Ranch, Calif.) controlled by WINWCP 4.X (University of Strathclyde, Glasgow, Scotland, UK). […] One day after transfection, cells were plate into 35 mm polystyrene dishes, incubated and recorded as described above. […]
Voltage-clamp data were analyzed by converting current amplitudes to current density by dividing by each cell's membrane capacitance estimated from capacitance compensation. […]

Adrenergic β1 = molecular target: T2, Adrenergic β1 (Homo sapiens, UniProt P08588); assay: Radioligand displacement (Ricerca); format: binding
T2 construct: Ricerca (contract assay)

Glucocorticoid = molecular target: T3, Glucocorticoid (Homo sapiens, UniProt P04150); assay: Radioligand displacement (Ricerca); format: binding
T3 construct: Ricerca

Leukotriene = molecular target: T4, Leukotriene (Homo sapiens, UniProt Q9Y271); assay: Radioligand displacement (Ricerca); format: binding
T4 construct: Ricerca (contract laboratory that ran the panel)

Muscarinic M3 = molecular target: T5, Muscarinic M3 (Homo sapiens, UniProt P20309); assay: Radioligand displacement (Ricerca); format: binding
T5 construct: Ricerca (contract laboratory that ran the panel)

Opiate (DOP) = molecular target: T6, Opiate (DOP) (Homo sapiens, UniProt P41143); assay: Radioligand displacement (Ricerca); format: binding
T6 construct: Ricerca (contract laboratory that ran the panel)
T6 sequence (P41143 whole entry): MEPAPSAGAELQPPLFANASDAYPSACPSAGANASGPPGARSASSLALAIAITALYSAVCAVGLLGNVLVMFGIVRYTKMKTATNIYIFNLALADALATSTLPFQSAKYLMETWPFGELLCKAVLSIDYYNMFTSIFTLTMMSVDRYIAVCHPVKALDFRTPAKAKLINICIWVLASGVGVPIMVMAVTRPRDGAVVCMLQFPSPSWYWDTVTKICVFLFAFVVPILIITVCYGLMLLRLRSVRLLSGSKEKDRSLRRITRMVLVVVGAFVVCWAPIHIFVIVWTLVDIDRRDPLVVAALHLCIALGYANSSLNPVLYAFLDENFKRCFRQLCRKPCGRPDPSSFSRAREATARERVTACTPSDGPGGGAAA

T5 sequence (P20309 whole entry): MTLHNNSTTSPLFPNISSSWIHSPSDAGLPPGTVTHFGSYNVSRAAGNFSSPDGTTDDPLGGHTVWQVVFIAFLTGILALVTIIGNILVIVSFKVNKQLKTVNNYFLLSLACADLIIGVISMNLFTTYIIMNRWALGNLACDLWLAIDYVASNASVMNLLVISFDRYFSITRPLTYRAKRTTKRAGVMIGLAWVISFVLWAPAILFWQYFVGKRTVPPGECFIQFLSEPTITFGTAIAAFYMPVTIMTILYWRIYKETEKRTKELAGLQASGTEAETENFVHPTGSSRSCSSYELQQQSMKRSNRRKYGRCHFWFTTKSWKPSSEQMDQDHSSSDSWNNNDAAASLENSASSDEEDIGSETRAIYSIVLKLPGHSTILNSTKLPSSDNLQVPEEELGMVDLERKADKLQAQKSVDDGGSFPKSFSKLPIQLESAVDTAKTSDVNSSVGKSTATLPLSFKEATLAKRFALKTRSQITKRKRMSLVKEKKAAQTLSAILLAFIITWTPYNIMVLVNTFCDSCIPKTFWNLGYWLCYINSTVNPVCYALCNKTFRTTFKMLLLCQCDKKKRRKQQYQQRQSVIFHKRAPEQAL
T4 sequence (Q9Y271 whole entry): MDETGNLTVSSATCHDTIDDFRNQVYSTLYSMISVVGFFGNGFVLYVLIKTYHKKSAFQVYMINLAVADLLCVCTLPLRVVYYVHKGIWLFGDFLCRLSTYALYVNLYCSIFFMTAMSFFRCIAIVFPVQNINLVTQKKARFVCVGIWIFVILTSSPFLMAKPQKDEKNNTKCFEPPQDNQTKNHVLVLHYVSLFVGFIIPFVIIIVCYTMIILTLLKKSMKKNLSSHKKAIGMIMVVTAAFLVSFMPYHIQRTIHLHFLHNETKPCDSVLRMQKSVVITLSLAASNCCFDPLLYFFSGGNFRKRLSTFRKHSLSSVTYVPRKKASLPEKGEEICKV
T2 sequence (P08588 whole entry): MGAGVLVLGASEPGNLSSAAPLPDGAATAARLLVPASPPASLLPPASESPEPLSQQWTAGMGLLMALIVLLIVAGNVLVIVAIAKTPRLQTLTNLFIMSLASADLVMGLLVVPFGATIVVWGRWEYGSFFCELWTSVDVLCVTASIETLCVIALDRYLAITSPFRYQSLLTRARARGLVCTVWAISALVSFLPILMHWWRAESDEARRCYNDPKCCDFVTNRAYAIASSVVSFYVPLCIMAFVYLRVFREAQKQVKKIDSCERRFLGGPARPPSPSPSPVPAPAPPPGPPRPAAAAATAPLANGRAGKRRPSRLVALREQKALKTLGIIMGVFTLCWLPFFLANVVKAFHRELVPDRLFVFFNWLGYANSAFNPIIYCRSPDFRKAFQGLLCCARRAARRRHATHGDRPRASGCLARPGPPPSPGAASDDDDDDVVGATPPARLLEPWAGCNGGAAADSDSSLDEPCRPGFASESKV
T3 sequence (P04150 whole entry): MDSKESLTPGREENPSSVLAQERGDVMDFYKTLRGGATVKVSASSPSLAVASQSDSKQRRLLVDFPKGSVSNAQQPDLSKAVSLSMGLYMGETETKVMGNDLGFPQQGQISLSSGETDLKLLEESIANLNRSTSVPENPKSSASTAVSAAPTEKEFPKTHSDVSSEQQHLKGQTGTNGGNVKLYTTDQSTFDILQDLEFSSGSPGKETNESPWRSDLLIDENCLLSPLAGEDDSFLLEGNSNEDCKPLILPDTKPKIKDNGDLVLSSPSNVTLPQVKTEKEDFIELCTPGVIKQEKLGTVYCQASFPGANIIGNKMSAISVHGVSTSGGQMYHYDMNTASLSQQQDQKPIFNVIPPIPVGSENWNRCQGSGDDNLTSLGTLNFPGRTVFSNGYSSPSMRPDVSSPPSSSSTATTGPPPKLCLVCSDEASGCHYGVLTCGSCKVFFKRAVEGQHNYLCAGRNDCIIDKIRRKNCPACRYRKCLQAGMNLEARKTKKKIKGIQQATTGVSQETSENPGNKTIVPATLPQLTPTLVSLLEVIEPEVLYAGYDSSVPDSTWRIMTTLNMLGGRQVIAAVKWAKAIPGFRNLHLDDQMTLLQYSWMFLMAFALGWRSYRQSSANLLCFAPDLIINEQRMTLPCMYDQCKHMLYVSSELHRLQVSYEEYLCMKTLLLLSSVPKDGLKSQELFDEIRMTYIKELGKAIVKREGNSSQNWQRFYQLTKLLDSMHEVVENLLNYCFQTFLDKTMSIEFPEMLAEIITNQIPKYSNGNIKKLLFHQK

## Cc1cc(NC(=O)Nc2ccc(F)c(F)c2)n(-c2ccccc2)n1 [VU0456810, 1-(3,4-difluorophenyl)-3-(3-methyl-1-phenyl-1H-pyrazol-5-yl)urea]
GIRK2/3
  EC50 Voltage Clamp: Inactive
Adrenergic β1
  inhibition at 10 µM: 0%
Glucocorticoid
  inhibition at 10 µM: 2%
Leukotriene
  inhibition at 10 µM: 4%
Muscarinic M3
  inhibition at 10 µM: 13%
Opiate (DOP)
  inhibition at 10 µM: -4%
